Experiment [1] deals with human orexin-2 receptor (hOX2R) (Homo sapiens (Human), UniProt O43614). The experiment is described as follows: FLIPR Ca2+ Flux Assay, hOX2R. It is filed as cell-based. Particulars: CHO cells expressing hOX2R; agonist 70 pM Ala-6,12 orexin-A. How it is done: In a typical experiment the OX1 and OX2 receptor antagonistic activity of the compounds of the present invention was determined in accordance with the following experimental method. For intracellular calcium measurements, Chinese hamster ovary (CHO) cells expressing the rat orexin-1 receptor or the human orexin-2 receptor, are grown in Iscove's modified DMEM containing 2 mM L-glutamine, […], 1% hypoxanthine-thymidine supplement, 100 U/ml penicillin, 100 μg/ml streptomycin and 10% heat-inactivated fetal calf serum (FCS). The cells are seeded at 20,000 cells/well into Becton-Dickinson black 384-well clear bottom sterile plates coated with poly-D-lysine. All reagents were from GIBCO-Invitrogen Corp. The seeded plates are incubated overnight at 37° C. and 5% CO2. Ala-6,12 human orexin-A as the agonist is prepared as a 1 mM stock solution in 1% bovine serum albumin (BSA) and diluted in assay buffer (HBSS containing 20 mM HEPES, 0.1% BSA and 2.5 mM probenecid, pH7.4) for use in the assay at a final concentration of 70 pM. Test compounds are prepared as 10 mM stock solution in DMSO, then diluted in 384-well plates, first in DMSO, then assay buffer. On the day of the assay, cells are washed 3 times with 100 μl assay buffer and then incubated for 60 min (37° C., 5% CO2) in 60 μl assay buffer containing 1 μM Fluo-4AM ester, 0.02% pluronic acid, and 1% BSA. The dye loading solution is then aspirated and cells are washed 3 times with 100 μl assay buffer. 30 μl of that same buffer is left in each well. Within the Fluorescent Imaging Plate Reader (FLIPR, Molecular Devices), test compounds are added to the plate in a volume of 25 μl, incubated for 5 min and finally 25 μl of agonist is added. Fluorescence is measured for each well at 1 second intervals for 5 minutes and the height of each fluorescence peak is compared to the height of the fluorescence peak induced by 70 pM Ala-6,12 orexin-A with buffer in place of antagonist. […] Alternatively, compound potency can be assessed by a radioligand binding assay (described in Bergman et. al. Bioorg. Med. Chem. Lett. 2008, 18, 1425-1430) in which the inhibition constant (Ki) is determined in membranes prepared from CHO cells expressing either the OX1 or OX2 receptor. The intrinsic orexin receptor antagonist activity of a compound which may be used in the present invention may be determined by these assays.
Sequence of human orexin-2 receptor (hOX2R) (O43614 whole entry): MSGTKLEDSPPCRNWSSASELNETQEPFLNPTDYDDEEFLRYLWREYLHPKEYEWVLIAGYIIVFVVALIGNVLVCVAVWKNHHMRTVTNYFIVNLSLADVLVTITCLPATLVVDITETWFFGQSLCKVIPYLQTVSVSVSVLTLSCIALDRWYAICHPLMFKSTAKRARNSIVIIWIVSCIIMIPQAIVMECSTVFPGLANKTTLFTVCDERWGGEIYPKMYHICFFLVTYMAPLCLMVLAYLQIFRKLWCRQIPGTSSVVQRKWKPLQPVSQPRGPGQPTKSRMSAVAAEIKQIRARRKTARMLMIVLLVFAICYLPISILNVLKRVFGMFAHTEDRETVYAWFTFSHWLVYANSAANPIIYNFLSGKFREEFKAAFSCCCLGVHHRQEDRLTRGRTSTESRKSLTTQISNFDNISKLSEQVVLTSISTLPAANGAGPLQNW
(§1) Chinese hamster ovary (CHO) cells expressing the human orexin-1 receptor (hOX1R) or the human orexin-2 receptor (hOX2R) were grown in Iscove's modified DMEM containing 2 mM L-glutamine, […], 1% hypoxanthine-thymidine supplement, 100 U/ml penicillin, 100 μg/ml streptomycin and 10% heat-inactivated fetal calf serum (FCS). The cells were seeded at 20,000 cells/well into Becton-Dickinson black 384-well clear bottom sterile plates coated with poly-D-lysine. All reagents were from GIBCO-Invitrogen Corp. The seeded plates were incubated overnight at 37° C. and 5% CO2. Ala-6,12 human orexin-A, used as the agonist, was prepared as a 1 mM stock solution in 1% bovine serum albumin (BSA) and diluted in assay buffer (HBSS containing 20 mM HEPES, 0.1% BSA and 2.5 mM probenecid, pH7.4) for use in the assay at a final concentration of 70 pM. Test compounds were prepared as 10 mM stock solution in DMSO, then diluted in 384-well plates, first in DMSO, then assay buffer.
On the day of the assay, cells were washed 3× with 100 μl assay buffer and then incubated for 60 minutes (37° C., 5% CO2) in 60 μl assay buffer containing 1 μM Fluo-4AM ester, 0.02% pluronic acid, and 1% BSA. The dye loading solution was then aspirated and cells were washed 3× with 100 μl assay buffer.
A general note: Calcium flux is commonly read through the fluorescence of an indicator in the cells.

In experiment [2] the target is human orexin-1 receptor (hOX1R) (Homo sapiens, UniProt O43613). Description: FLIPR Ca2+ Flux Assay, hOX1R. Type of experiment: cell-based. The settings on record: CHO cells expressing hOX1R; agonist 70 pM Ala-6,12 orexin-A. As for the experimental part:
as §1
On the day of the assay, cells were washed 3× with 100 μl assay buffer and then incubated for 60 minutes (37° C., 5% CO2) in 60 μl assay buffer containing 1 μM Fluo-4AM ester, 0.02% pluronic acid, and 1% BSA. The dye loading solution was then aspirated and cells were washed 3× with 100 μl assay buffer. 30 μl of that same buffer was left in each well. Within the Fluorescent Imaging Plate Reader (FLIPR, Molecular Devices), test compounds were added to the plate in a volume of 25 μl, incubated for 5 minutes, and then 25 μl of agonist was added. Fluorescence was measured for each well at 1 second intervals for 5 minutes, and the height of each fluorescence peak was compared to the height of the fluorescence peak induced by 70 pM of Ala-6,12 orexin-A with buffer in place of test compound.

What is called IC50 is the concentration at which inhibition is half-maximal. As for `C[C@@H]1CC[C@@H](Oc2cccc3c2CCC[C@@]3(C)O)CN1C(=O)c1ccccc1-n1nccn1` [Example 29, (1R)-1-Methyl-5-{[(3R,6R)-6-methyl-1-{[2-(2H-1,2,3-triazol-2-yl)phenyl]carbonyl}piperidin-3-yl]oxy}-1,2,3,4-tetrahydronaphthalen-1-ol], the IC50 in experiment [1] was determined as 123 nM; in experiment [2], 10000 nM.
The matching figures for `C[C@@H]1CC[C@@H](Oc2cccc3c2CCC[C@]3(C)O)CN1C(=O)c1ccccc1-n1nccn1` [Example 30, (1S)-1-methyl-5-{[(3R,6R)-6-methyl-1-{[2-(2H-1,2,3-triazol-2-yl)phenyl]carbonyl}piperidin-3-yl]oxy}-1,2,3,4-tetrahydronaphthalen-1-ol]: 20 nM and 289 nM.
In the same order, the values of `C[C@@H]1CC[C@@H](Oc2ccc3c(c2)C(C)(O)CC3)CN1C(=O)c1ccccc1-n1nccn1` (stereo partly drawn) [Example 33, 1-Methyl-6-{[(3R,6R)-6-methyl-1-{[2-(2H-1,2,3-triazol-2-yl)phenyl]carbonyl}piperidin-3-yl]oxy}-2,3-dihydro-1H-inden-1-ol] are 23 nM and 742 nM.
As for `C[C@@H]1CC[C@@H](Oc2cccc(C(C)(O)C(F)F)c2)CN1C(=O)c1ccccc1-n1nccn1` (stereo partly drawn) [Example 36, 1,1-difluoro-2-(3-{[(3R,6R)-6-methyl-1-{[2-(2H-1,2,3-triazol-2-yl)phenyl]carbonyl}piperidin-3-yl]oxy}phenyl)propan-2-ol], the IC50 in experiment [1] was 18 nM; in experiment [2], 7280 nM.
The matching figures for `C[C@@H]1CC[C@@H](Oc2cccc(C(C)(C)O)c2)CN1C(=O)c1ccsc1-n1nccn1` [Example 37, 2-(3-{[(3R,6R)-6-Methyl-1-{[2-(2H-1,2,3-triazol-2-yl)thiophen-3-yl]carbonyl}piperidin-3-yl]oxy}phenyl)propan-2-ol]: 45 nM and 10000 nM.
Consider “(1R)-1-Methyl-6-{[(3R,6R)-6-methyl-1-{[2-(2H-1,2,3-triazol-2-yl)phenyl]carbonyl}piperidin-3-yl]oxy}-2,3-dihydro-1H-inden-1-ol [Example 34]”, for which the IC50 amounted to 112 nM in experiment [1] and 1170 nM in experiment [2].
The matching figures for “(1S)-1-Methyl-6-{[(3R,6R)-6-methyl-1-{[2-(2H-1,2,3-triazol-2-yl)phenyl]carbonyl}piperidin-3-yl]oxy}-2,3-dihydro-1H-inden-1-ol [Example 35]”: 164 nM and 3350 nM.

Source of the values: US9725434B2, “Hydroxy-substituted orexin receptor antagonists” (MERCK SHARP & DOHME CORP., priority 2013, dated 2017).
